Among the test systems are OVCAR-4 ovarian; MCF7 breast; DU-145 prostate; SF-268 CNS; MDA-MB-435; HT29 colon; NCI/ADR-RES ovarian; PC-3 prostate; A549 NSCLC; IGROV1 ovarian; LOX IMVI melanoma; MOLT-4 leukemia; EKVX NSCLC; UACC-62 melanoma; RXF 393 renal; CCRF-CEM leukemia; K-562 leukemia; SR leukemia; LXFL 529 NSCLC; XF 498 CNS.
Test in all cases: growth of human tumour cells (NCI), 48 h

Each structure is given as a SMILES string.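 In this assay, cells in 96-well plates receive the compound at five concentrations for 48 hours. Endpoints are linearly interpolated between the surrounding concentrations. Definition used: TGI = concentration required for complete inhibition of growth.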 Where a SMILES comes first, the peptide text is derived from it. [ ]: non-standard residue; d: D form. The star is where a group is joined. Iva = CC[C](C)(N)C(=O)O; Boc = CC(C)(C)OC(=O)*; X52 = C1CCC(=NO*)C1

Consider `C1CSCCSCCSCCSC1`, for which the TGI in the experiment on OVCAR-4 ovarian, in the experiment on MCF7 breast, in the experiment on DU-145 prostate, in the experiment with SF-268 CNS, in the experiment on MDA-MB-435 and in the experiment on HT29 colon was more than 100 µM each time. For the same molecule, the TGI with NCI/ADR-RES ovarian, in the experiment with PC-3 prostate, with A549 NSCLC, in the experiment on IGROV1 ovarian, with LOX IMVI melanoma and in the experiment with MOLT-4 leukemia was more than 100 µM throughout. For the same molecule, the TGI in the experiment on EKVX NSCLC, in the experiment on UACC-62 melanoma and in the experiment on RXF 393 renal was more than 100 µM throughout.

Turning to `CCC(C)(NC(=O)C(C)NC(=O)OC(C)(C)C)C(=O)NC(C)C(=O)NC(C)(CC)C(=O)ON=C1CCCC1` (centres undefined) (Boc-A[Iva]A[Iva]-X52; configuration not given here), the TGI in the experiment with CCRF-CEM leukemia, in the experiment with K-562 leukemia, in the experiment on MCF7 breast, in the experiment with DU-145 prostate, with MDA-MB-435 and with NCI/ADR-RES ovarian was more than 100 µM throughout. Besides, the TGI in the experiment on PC-3 prostate, in the experiment with IGROV1 ovarian, in the experiment with MOLT-4 leukemia, in the experiment on UACC-62 melanoma, with SR leukemia and in the experiment with RXF 393 renal was more than 100 µM each time.

Turning to `CCCCN1CN2C(=O)C(C(=O)OCC)C(=O)c3sc4nc(SC)nc1c4c32` (centres undefined), the TGI in the experiment on OVCAR-4 ovarian was 33.4 µM; in the experiment with CCRF-CEM leukemia it was 83.9 µM; with K-562 leukemia, 77.9 µM; in the experiment on MCF7 breast, 39.9 µM; in the experiment on DU-145 prostate, 35.4 µM; in the experiment with SF-268 CNS, 39.8 µM. Further, the TGI is 34 µM in the experiment on MDA-MB-435; 40.5 µM in the experiment on HT29 colon; 37.1 µM in the experiment on NCI/ADR-RES ovarian; 39.5 µM with PC-3 prostate; 39.9 µM in the experiment on A549 NSCLC; 33.5 µM in the experiment with IGROV1 ovarian. In addition, the TGI with LOX IMVI melanoma came out at 38.1 µM; in the experiment on MOLT-4 leukemia it was 66.3 µM; with EKVX NSCLC, 32.2 µM; with UACC-62 melanoma it was 31.5 µM; in the experiment on SR leukemia, 67 µM; in the experiment with RXF 393 renal, 38.5 µM.

As for `CCCC[C@H]1[C@@H](OCOc2ccccc2)COC(=O)N1[C@H](C)c1ccccc1`, the TGI with OVCAR-4 ovarian was 43.9 µM; with CCRF-CEM leukemia it was 68.8 µM; with K-562 leukemia, more than 100 µM; in the experiment on MCF7 breast, 26.7 µM; with DU-145 prostate it was 53.3 µM; in the experiment with SF-268 CNS it was 38.7 µM. Further, the TGI in the experiment with MDA-MB-435 is 38.5 µM; in the experiment with HT29 colon, more than 59 µM; in the experiment with NCI/ADR-RES ovarian it was more than 66.1 µM; in the experiment on PC-3 prostate, 23.4 µM; in the experiment with A549 NSCLC it was 28.4 µM; in the experiment on IGROV1 ovarian it was more than 61.8 µM. For the same molecule, the TGI was 70.7 µM in the experiment on LOX IMVI melanoma; more than 60.4 µM in the experiment with MOLT-4 leukemia; 85.2 µM in the experiment on EKVX NSCLC; 30.2 µM in the experiment with UACC-62 melanoma; more than 80.9 µM in the experiment with SR leukemia; 47.6 µM in the experiment on RXF 393 renal.

On to `COc1ccc(C2SCC(=O)N2NC(=O)c2ccncc2)cc1F` (centres undefined), for which the TGI in the experiment with OVCAR-4 ovarian, with LXFL 529 NSCLC, in the experiment with SF-268 CNS, with XF 498 CNS, in the experiment on HT29 colon and in the experiment on A549 NSCLC was more than 100 µM each time. The TGI with LOX IMVI melanoma, in the experiment with SR leukemia and in the experiment with RXF 393 renal was more than 100 µM in each case.

With `CC(C)OP(=O)(OC(C)C)c1nc(-c2ccccc2)n(-c2ccc([N+](=O)[O-])cc2)n1`, the TGI in the experiment with OVCAR-4 ovarian, with CCRF-CEM leukemia, in the experiment on K-562 leukemia, in the experiment on LXFL 529 NSCLC, with SF-268 CNS and with XF 498 CNS was more than 100 µM each time. Moreover, the TGI in the experiment with HT29 colon, with A549 NSCLC, in the experiment on IGROV1 ovarian, in the experiment on MOLT-4 leukemia, with EKVX NSCLC and in the experiment on UACC-62 melanoma was more than 100 µM throughout.

For the origin of these results see PubChem BioAssay (NCI).
